Source: publication doi:10.1101/2025.08.29.673196v2, “Development and characterization of Novel Small Molecule Inhibitors Targeting LAG-3 Protein” (biorxiv, 2025)
pIC50: −log10 of the molar value.

These molecules were tested against T1, LAG-3 (biotinylated LAG-3 of HTRF LAG-3/MHCII binding assay) (Homo sapiens, UniProt P18627) (assay: HTRF LAG-3/MHCII binding inhibition).
T1 construct: gene LAG3; biotinylated LAG-3 reagent of Revvity HTRF LAG-3/MHCII kit
T1 sequence (P18627 23-450 limits assumed): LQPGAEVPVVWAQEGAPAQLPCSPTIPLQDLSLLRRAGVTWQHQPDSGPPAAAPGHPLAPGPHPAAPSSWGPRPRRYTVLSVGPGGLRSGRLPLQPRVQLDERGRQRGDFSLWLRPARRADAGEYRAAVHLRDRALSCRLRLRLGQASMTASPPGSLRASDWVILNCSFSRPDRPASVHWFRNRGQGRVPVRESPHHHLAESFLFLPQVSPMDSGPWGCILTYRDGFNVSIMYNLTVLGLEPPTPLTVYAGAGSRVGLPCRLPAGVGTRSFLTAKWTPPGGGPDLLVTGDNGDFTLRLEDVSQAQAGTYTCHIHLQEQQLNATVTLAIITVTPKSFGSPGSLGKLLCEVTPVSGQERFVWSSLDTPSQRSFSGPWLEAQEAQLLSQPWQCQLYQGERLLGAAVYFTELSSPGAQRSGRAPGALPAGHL
In the case of `Cc1cc(=O)oc2cc(NC(=O)c3cc(NS(=O)(=O)N4CCC(c5ccccc5)CC4)ccc3Oc3ccc(C(=O)O)cc3)ccc12` [LG-193], the pIC50 was 6.33. For `COc1ccc(OC)c(NC(=O)C(=O)Nc2ccc(Oc3ccc(C(=O)O)cc3)c(C(=O)Nc3ccc4c(C)cc(=O)oc4c3)c2)c1` [LG-164], the pIC50 was 6.43. For `Cc1cc(=O)oc2cc(NC(=O)c3cc(NC(=O)c4cccc(C5(C(F)(F)F)CCC5)c4)ccc3Oc3ccc(C(=O)O)cc3)ccc12` [LG-131], the pIC50 was 6.22. Molecule `Cc1cc(=O)oc2cc(NC(=O)c3cc(NC(=O)c4ccccc4)ccc3Oc3ccc(C(=O)O)cc3)ccc12` [LG-125] has a pIC50 of 4.68.
